# In patent US20230014445A1, “ALLOSTERIC CHROMENONE INHIBITORS OF PHOSPHOINOSITIDE 3-KINASE (PI3K) FOR THE TREATMENT OF DISEASE” (Petra Pharma Corporation, priority 2021, published 2023):
# How the values were obtained:
# [1] = molecular target: T1, human full length PIK3KA Wild-type (p110α/p85α complex) (Homo sapiens, UniProt P42336); experiment: PI3K-Alpha Kinase (PIK3CA) biochemical activity, wild-type (ADP-Glo); details: 20 uM ATP
# T1 construct: Recombinant, catalytically active human full length PIK3KA Wild-type and H1047R mutant were purchased; 6xHis (N); purchased EMD Millipore Sigma 14-602M
# Summary of the method: (§1)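 ADP formation, measured by ADP-Glo luminescence after reaction to about 10% ATP conversion at 27° C., gives 10-point 4-parameter IC50 curves normalized to no-enzyme and DMSO controls. Lipid substrate was PIP2diC8 or Soy PI at 50 uM, with 20 uM ATP. WT or H1047R p110α/p85α complex (1-5 nM) was preincubated 1 h with compound.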
# [2] = molecular target: T2, human full length PIK3KA H1047R mutant (p110α/p85α complex) (Homo sapiens, UniProt P42336, H1047R); experiment: PI3K-Alpha Kinase (PIK3CA) biochemical activity, H1047R mutant (ADP-Glo); details: 20 uM ATP
# T2 construct: Recombinant, catalytically active human full length PIK3KA Wild-type and H1047R mutant were purchased; 6xHis (N); purchased EMD Millipore Sigma 14-792M
# Summary of the method: as §1
# [3] = molecular target: PI3K-α (PIK3CA) in MDA-MB-453 cells (Homo sapiens, UniProt P42336); experiment: PI3K-Alpha Kinase (PIK3CA) activity in vitro cell based assay (AlphaLisa SureFire); details: 0% FBS, 3 hours treatment, read-out: PI3K-α (PIK3CA) in vitro cell based assay IC50
# Summary of the method: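 Serum-free MDA-MB-453 cells with 1 μg/mL insulin treated 3 h with a 10-point compound series in 0.3% DMSO; lysates analysed by AlphaLisa SureFire. Relative IC50 from 4-parameter fit of % inhibition versus DMSO (max) and 1 μM GDC-0032 (min) controls, duplicates.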
# T2 sequence (P42336 whole entry H1047R): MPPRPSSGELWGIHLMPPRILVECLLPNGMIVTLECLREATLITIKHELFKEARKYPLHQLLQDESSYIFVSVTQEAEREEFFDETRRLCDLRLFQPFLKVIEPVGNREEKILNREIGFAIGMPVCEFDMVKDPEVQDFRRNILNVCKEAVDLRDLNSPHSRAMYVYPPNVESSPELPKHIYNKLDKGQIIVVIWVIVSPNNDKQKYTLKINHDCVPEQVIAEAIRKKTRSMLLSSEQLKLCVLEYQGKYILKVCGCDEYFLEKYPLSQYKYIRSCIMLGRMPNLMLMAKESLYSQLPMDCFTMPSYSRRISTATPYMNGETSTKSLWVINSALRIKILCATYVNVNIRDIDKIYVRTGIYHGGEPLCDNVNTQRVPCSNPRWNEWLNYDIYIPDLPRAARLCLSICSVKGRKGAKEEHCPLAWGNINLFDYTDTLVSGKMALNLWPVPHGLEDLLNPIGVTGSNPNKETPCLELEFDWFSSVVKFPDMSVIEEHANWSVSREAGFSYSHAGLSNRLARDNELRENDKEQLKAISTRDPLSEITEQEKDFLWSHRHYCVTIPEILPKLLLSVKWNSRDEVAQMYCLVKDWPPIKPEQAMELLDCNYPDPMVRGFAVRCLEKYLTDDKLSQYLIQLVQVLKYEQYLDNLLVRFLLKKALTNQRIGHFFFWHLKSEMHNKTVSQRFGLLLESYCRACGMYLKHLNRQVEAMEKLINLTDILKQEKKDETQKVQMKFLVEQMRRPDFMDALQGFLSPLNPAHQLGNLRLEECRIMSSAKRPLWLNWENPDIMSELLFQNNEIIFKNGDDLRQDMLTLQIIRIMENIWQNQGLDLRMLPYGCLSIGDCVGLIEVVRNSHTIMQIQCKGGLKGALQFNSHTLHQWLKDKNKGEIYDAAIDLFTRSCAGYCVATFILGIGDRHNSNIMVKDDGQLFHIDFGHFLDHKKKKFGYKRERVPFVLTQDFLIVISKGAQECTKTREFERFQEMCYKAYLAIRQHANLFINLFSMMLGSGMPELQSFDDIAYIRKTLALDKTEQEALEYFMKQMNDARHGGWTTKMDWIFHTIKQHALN
# T2 sequence (P27986 whole entry partner): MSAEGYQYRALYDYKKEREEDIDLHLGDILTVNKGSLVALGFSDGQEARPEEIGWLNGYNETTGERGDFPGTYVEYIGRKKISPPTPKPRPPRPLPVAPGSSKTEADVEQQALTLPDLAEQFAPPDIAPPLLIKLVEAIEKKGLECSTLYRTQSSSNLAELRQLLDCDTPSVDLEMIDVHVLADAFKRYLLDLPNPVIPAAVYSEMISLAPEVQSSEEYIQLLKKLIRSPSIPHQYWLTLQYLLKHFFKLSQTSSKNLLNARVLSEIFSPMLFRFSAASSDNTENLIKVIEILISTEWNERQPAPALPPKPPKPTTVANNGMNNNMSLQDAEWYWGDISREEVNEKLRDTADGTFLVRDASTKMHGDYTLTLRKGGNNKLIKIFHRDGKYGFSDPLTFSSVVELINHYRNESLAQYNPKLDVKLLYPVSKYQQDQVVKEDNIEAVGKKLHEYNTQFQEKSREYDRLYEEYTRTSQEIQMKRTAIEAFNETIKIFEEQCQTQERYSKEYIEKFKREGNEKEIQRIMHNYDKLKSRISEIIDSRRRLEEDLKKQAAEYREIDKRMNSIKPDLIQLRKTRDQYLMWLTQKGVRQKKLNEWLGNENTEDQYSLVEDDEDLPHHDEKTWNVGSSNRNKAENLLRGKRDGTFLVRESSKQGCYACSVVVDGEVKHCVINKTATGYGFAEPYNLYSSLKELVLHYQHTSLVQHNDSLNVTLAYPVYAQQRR
# Sequence of PI3K-α (PIK3CA) in MDA-MB-453 cells (P42336 whole entry): as the sequence (P42336 whole entry H1047R) above, with R1047H counted along it
# Sequence of PI3K-α (PIK3CA) in MDA-MB-453 cells (P27986 2-724, further chain): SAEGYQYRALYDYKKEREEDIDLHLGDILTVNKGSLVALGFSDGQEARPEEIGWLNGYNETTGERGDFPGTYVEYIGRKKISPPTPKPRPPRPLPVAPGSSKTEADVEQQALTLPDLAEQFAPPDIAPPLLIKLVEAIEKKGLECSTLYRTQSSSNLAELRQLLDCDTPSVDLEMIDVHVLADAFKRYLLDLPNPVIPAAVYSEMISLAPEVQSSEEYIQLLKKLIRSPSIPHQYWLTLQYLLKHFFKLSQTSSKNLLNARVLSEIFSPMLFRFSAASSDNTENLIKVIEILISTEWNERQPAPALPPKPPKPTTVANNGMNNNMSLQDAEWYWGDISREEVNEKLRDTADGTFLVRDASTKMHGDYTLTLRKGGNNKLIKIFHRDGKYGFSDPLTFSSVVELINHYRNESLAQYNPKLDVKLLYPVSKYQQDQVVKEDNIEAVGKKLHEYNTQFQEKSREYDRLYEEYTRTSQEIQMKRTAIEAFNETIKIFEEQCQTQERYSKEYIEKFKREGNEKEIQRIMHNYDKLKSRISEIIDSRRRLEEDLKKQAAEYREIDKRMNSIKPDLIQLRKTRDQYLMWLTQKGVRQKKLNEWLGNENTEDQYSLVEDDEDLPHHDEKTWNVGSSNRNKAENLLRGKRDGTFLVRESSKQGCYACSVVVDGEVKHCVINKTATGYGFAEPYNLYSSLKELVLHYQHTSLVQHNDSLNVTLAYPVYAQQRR
SMILES,IC50 ([1]; Soy PI lipid substrate),IC50 ([2]; Soy PI lipid substrate),IC50 [3],IC50 ([1]; PIP2diC8 lipid substrate),IC50 ([2]; PIP2diC8 lipid substrate)
"Cc1cc(C(C)Nc2cccnc2C(=O)O)c2oc(-c3cccnc3)c(C)c(=O)c2c1 (single isomer, unassigned; isomer 1) [Example 116, 3-[1-[3,6-Dimethyl-4-oxo-2-(3-pyridyl)chromen-8-yl]ethylamino]pyridine-2-carboxylic acid, Isomer 1]",5 to 10 µM,< 0.5 µM,0.05 to 0.1 µM,–,–
"Cc1cc(C(C)Nc2ccc(C)nc2C(=O)O)c2oc(-c3cccnc3)c(C)c(=O)c2c1 (single isomer, unassigned; isomer 1) [Example 118, 3-[1-[3,6-Dimethyl-4-oxo-2-(3-pyridyl)chromen-8-yl]ethylamino]-6-methyl-pyridine-2-carboxylic acid, Isomer 1]",1 to 5 µM,< 0.5 µM,0.05 to 0.1 µM,–,–
"Cc1cc(C(C)Nc2ccc(C(F)(F)F)cc2C(=O)O)c2oc(-c3cccnc3)c(C)c(=O)c2c1 (single isomer, unassigned; isomer 1) [Example 119, 2-[1-[3,6-Dimethyl-4-oxo-2-(3-pyridyl)chromen-8-yl]ethylamino]-5-(trifluoromethyl)benzoic acid, Isomer 1]",1 to 5 µM,< 0.5 µM,0.05 to 0.1 µM,–,–
"Cc1cc(C(C)Nc2ccc(C)nc2C(=O)O)c2oc(-c3ccccn3)c(C)c(=O)c2c1 (single isomer, unassigned; isomer 1) [Example 122, 3-[1-[3,6-Dimethyl-4-oxo-2-(2-pyridyl)chromen-8-yl]ethylamino]-6-methyl-pyridine-2-carboxylic acid, Isomer 1]",5 to 10 µM,< 0.5 µM,0.05 to 0.1 µM,–,–
"Cc1cc(C(C)Nc2ccc(F)c(F)c2C(=O)O)c2oc(-c3ccccn3)c(C)c(=O)c2c1 (single isomer, unassigned; isomer 1) [Example 128, 6-[1-[3,6-Dimethyl-4-oxo-2-(2-pyridyl)chromen-8-yl]ethylamino]-2,3-difluoro-benzoic acid, Isomer 1]",0.5 to 1 µM,< 0.5 µM,0.05 to 0.1 µM,–,–
"Cc1cc(C(C)Nc2cccnc2C(=O)O)c2oc(-c3cncc(F)c3)c(C)c(=O)c2c1 (single isomer, unassigned; isomer 1) [Example 131, 3-[1-[2-(5-Fluoro-3-pyridyl)-3,6-dimethyl-4-oxo-chromen-8-yl]ethylamino]pyridine-2-carboxylic acid, Isomer 1]",> 10 µM,1 to 5 µM,0.05 to 0.1 µM,–,–
"COc1cccc(-c2cc(=O)c3cc(C)cc(C(C)Nc4ccccc4C(=O)O)c3o2)n1 (single isomer, unassigned; isomer 2) [Example 22, 2-[1-[2-(6-Methoxy-2-pyridyl)-6-methyl-4-oxo-chromen-8-yl]ethylamino]benzoic acid, Isomer 2]",1 to 5 µM,< 0.5 µM,0.05 to 0.1 µM,–,–
"Cc1cc(C(C)Nc2ccccc2C(=O)O)c2oc(-c3nccnc3C)cc(=O)c2c1 (single isomer, unassigned; isomer 2) [Example 29, 2-[1-[6-Methyl-2-(3-methylpyrazin-2-yl)-4-oxo-chromen-8-yl]ethylamino]benzoic acid, Isomer 2]",5 to 10 µM,< 0.5 µM,0.1 to 0.5 µM,–,–
"Cc1cc(C(C)Nc2ccccc2C(=O)O)c2oc(-c3cnc(C)nc3)cc(=O)c2c1 (single isomer, unassigned; isomer 2) [Example 33, 2-[1-[6-Methyl-2-(2-methylpyrimidin-5-yl)-4-oxo-chromen-8-yl]ethylamino]benzoic acid, Isomer 2]",–,–,> 0.5 µM,> 10 µM,> 10 µM
"Cc1cc(C(C)Nc2ccccc2C(=O)O)c2oc(-c3ccc(F)nc3)cc(=O)c2c1 (single isomer, unassigned; isomer 2) [Example 36, 2-[1-[2-(6-Fluoro-3-pyridyl)-6-methyl-4-oxo-chromen-8-yl]ethylamino]benzoic acid, Isomer 2]",5 to 10 µM,< 0.5 µM,< 0.05 µM,–,–
"Cc1cc(C(C)Nc2ccccc2C(=O)O)c2oc(-c3cnc(OC(C)C)nc3)cc(=O)c2c1 (single isomer, unassigned; isomer 2) [Example 42, 2-[1-[2-(2-Isopropoxypyrimidin-5-yl)-6-methyl-4-oxo-chromen-8-yl]ethylamino]benzoic acid, Isomer 2]",5 to 10 µM,< 0.5 µM,0.05 to 0.1 µM,–,–
"COc1cccc(-c2nnc(-c3cc(=O)c4cc(C)cc(C(C)Nc5ccccc5C(=O)O)c4o3)o2)c1 (single isomer, unassigned; isomer 2) [Example 84, 2-[1-[2-[5-(3-Methoxyphenyl)-1,3,4-oxadiazol-2-yl]-6-methyl-4-oxo-chromen-8-yl]ethylamino]benzoic acid, Isomer 2]",1 to 5 µM,< 0.5 µM,0.1 to 0.5 µM,–,–
"Cc1cc(C(C)Nc2cccc(F)c2C(=O)O)c2oc(-c3ccccn3)cc(=O)c2c1 (single isomer, unassigned; isomer 2) [Example 111, 2-Fluoro-6-[1-[6-methyl-4-oxo-2-(2-pyridyl)chromen-8-yl]ethylamino]benzoic acid, Isomer 2]",1 to 5 µM,1 to 5 µM,> 0.5 µM,–,–
"Cc1cc(C(C)Nc2cccc(F)c2C(=O)O)c2oc(-c3cnn(-c4ccc(C#N)cc4)c3)cc(=O)c2c1 (single isomer, unassigned; isomer 2) [Example 113, 2-[1-2-[1-(4-Cyanophenyl)pyrazol-4-yl]-6-methyl-4-oxo-chromen-8-yl]ethylamino]-6-fluoro-benzoic acid, Isomer 2]",1 to 5 µM,< 0.5 µM,0.1 to 0.5 µM,–,–

# Next, values leading:
IC50 ([1]; Soy PI lipid substrate),IC50 ([2]; Soy PI lipid substrate),IC50 [3],IC50 ([1]; PIP2diC8 lipid substrate),IC50 ([2]; PIP2diC8 lipid substrate),SMILES
1 to 5 µM,< 0.5 µM,< 0.05 µM,–,–,"Cc1cc(C(C)Nc2ccc(C(F)(F)F)nc2C(=O)O)c2oc(-c3cccnc3)c(C)c(=O)c2c1 (single isomer, unassigned; isomer 1) [Example 117, 3-[1-[3,6-Dimethyl-4-oxo-2-(3-pyridyl)chromen-8-yl]ethylamino]-6-(trifluoromethyl)pyridine-2-carboxylic acid, Isomer 1]"
1 to 5 µM,< 0.5 µM,< 0.05 µM,–,–,"Cc1cc(C(C)Nc2ccc(F)cc2C(=O)O)c2oc(-c3cccnc3)c(C)c(=O)c2c1 (single isomer, unassigned; isomer 1) [Example 120, 2-[1-[3,6-Dimethyl-4-oxo-2-(3-pyridyl)chromen-8-yl]ethylamino]-5-fluoro-benzoic acid, Isomer 1]"
1 to 5 µM,< 0.5 µM,< 0.05 µM,–,–,"Cc1cc(C(C)Nc2ccc(C)nc2C(=O)O)c2oc(-c3cncc(F)c3)c(C)c(=O)c2c1 (single isomer, unassigned; isomer 1) [Example 123, 3-[1-[2-(5-Fluoro-3-pyridyl)-3,6-dimethyl-4-oxo-chromen-8-yl]ethylamino]-6-methyl-pyridine-2-carboxylic acid, Isomer 1]"
< 0.5 µM,< 0.5 µM,< 0.05 µM,–,–,"Cc1cc(C(C)Nc2ccc(Br)nc2C(=O)O)c2oc(-c3cccnc3)c(C)c(=O)c2c1 (single isomer, unassigned; isomer 1) [Example 129, 6-Bromo-3-[1-[3,6-dimethyl-4-oxo-2-(3-pyridyl)chromen-8-yl]ethylamino]pyridine-2-carboxylic acid, Isomer 1]"
0.5 to 1 µM,< 0.5 µM,< 0.05 µM,–,–,"Cc1cc(C(C)Nc2ccccc2C(=O)O)c2oc(-c3cnc(N(C)C)s3)c(C)c(=O)c2c1 (single isomer, unassigned; isomer 1) [Example 130, 2-[1-[2-[2-(Dimethylamino)thiazol-5-yl]-3,6-dimethyl-4-oxo-chromen-8-yl]ethylamino]benzoic acid, Isomer 1]"
0.5 to 1 µM,< 0.5 µM,< 0.05 µM,–,–,"Cc1cc(C(C)Nc2ccc(Cl)cc2C(=O)O)c2oc(-c3cccnc3)c(C)c(=O)c2c1 (single isomer, unassigned; isomer 1) [Example 132, 5-Chloro-2-[1-[3,6-dimethyl-4-oxo-2-(3-pyridyl)chromen-8-yl]ethylamino]benzoic acid, Isomer 1]"
